# Measurements published in patent EP4603105A1, “PHARMACEUTICAL COMPOSITION CONTAINING CYCLIC COMPOUND HAVING SELECTIVE KRAS INHIBITORY EFFECT AGAINST HRAS AND NRAS” (CHUGAI SEIYAKU KABUSHIKI KAISHA, priority 2022, dated 2024).
# Read-outs that look alike come from different tables or passages of the source. *1 amine or outer side, *2 acyl side, *3 side chain or, on linkers, in order; H or OH if unused. Where a SMILES comes first, the peptide text is derived from it. Bridges are numbered along the chain shown (N, C = ends). [ ]: non-standard residue; d: D form. The star is where a group is joined. hPhe(3-Cl-4-CF3) = N[C@@H](CCc1ccc(C(F)(F)F)c(Cl)c1)C(=O)O; X18 = CCCCN([C@@H](Cc1ccc(C(F)(F)F)cc1)C(=O)[*:2])[*:1]; NPrPhe(4-CF3) = CCCN[C@@H](Cc1ccc(C(F)(F)F)cc1)C(=O)O; NMeGly(cPent) = CN[C@H](C(=O)O)C1CCCC1; Hyp = O=C(O)[C@@H]1C[C@@H](O)CN1; NMeF = CN[C@@H](Cc1ccccc1)C(=O)O; NMeD = CN[C@@H](CC(=O)O)C(=O)O; NMeL = CN[C@@H](CC(C)C)C(=O)O; Morpholide = C1CN(*)CCO1; Ac5c = NC1(C(=O)O)CCCC1; NEtG = CCNCC(=O)O; Sar = CNCC(=O)O
# Assays:
# [1] = molecular target: GDP-bound NRAS wild-type protein (Homo sapiens, UniProt P01111); assay: Binding to NRAS by surface plasmon resonance (SPR), KD and KD ratio to KRAS
# Method in brief: (§1)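 Recombinant RAS proteins bearing a biotinylated Avi tag and loaded with GDP served as the captured ligand, recaptured fresh every cycle. Binding responses were referenced to an uncoated surface and a buffer-only blank cycle. Dissociation constants were obtained by 1:1 model fitting at 30°C.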
# HRAS wild-type protein = HRAS wild-type protein (Homo sapiens, UniProt P01112); assay: Binding to HRAS by surface plasmon resonance (SPR), KD and KD ratio to KRAS
# Method in brief: as §1
# [2] = tested on: human lung cancer strain NCI-H441; assay type: cell-based
# Method in brief: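 Signal came from […] measured per well once the reagent was added. Beforehand, cells were cultured at 37°C and 5% carbon dioxide on a compound series serially diluted in dimethyl sulfoxide.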
# [3] = ratio of KD for GDP-bound NRAS wild-type protein to KD for KRAS
# [4] = ratio of KD for HRAS wild-type protein to KD for KRAS
# [5] = ratio of the KD value with respect to GDP-bound NRAS wild-type protein to the KD value with respect to KRAS
# [6] = ratio of the KD value with respect to HRAS wild-type protein to the KD value with respect to KRAS
# [7] = ratio of KD value for GDP-bound NRAS wild-type protein to KD value for KRAS (SPR)
# [8] = ratio of KD value for HRAS wild-type protein to KD value for KRAS (SPR)
# Chain of HRAS wild-type protein (P01112 whole entry): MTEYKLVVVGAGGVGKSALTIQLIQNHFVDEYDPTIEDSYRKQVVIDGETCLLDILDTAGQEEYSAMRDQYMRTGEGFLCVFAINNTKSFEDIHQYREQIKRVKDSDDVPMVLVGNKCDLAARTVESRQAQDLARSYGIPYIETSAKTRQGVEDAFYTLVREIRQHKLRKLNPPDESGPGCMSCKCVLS
# Chain of GDP-bound NRAS wild-type protein (P01111 whole entry): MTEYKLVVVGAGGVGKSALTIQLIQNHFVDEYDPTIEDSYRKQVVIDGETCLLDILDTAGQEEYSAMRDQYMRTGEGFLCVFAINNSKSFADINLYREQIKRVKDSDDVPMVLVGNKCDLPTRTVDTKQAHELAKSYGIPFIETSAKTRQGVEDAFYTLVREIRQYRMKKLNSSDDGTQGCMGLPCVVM
SMILES,"NRAS /KRAS [1, 3]",HRAS /KRAS (HRAS wild-type protein; [4]),IC50 [2] [nM],"NRAS /KRAS [1, 5]",HRAS /KRAS (HRAS wild-type protein; [6]),"IC50 ([2]; NCI-H441 cells, 4 days, CellTiter-Glo, read-out: NCl-H441 IC50) [nM]","NRAS /KRAS [1, 7]",HRAS /KRAS (HRAS wild-type protein; [8])
CCCO[C@@H]1C[C@H]2C(=O)NC3(CC(C)(C)C3)C(=O)N(C)[C@@H](C3CCCC3)C(=O)N(C)[C@H](C(=O)N(C)CC)CC(=O)N(C)[C@H]3CCCc4ccc(cc4)C[C@@H](C(=O)N(C)CC(=O)N[C@@H](CCc4ccc(Cl)c(Cl)c4)C(=O)N2C1)N1CC/C=C\C[C@@H](C1=O)N(C)C(=O)CN(C)C(=O)[C@H]([C@@H](C)CC)NC3=O [PP3089],B (a compound having 3 or more and less than 10 is denoted as B),B (a compound having 3 or more and less than 10 is denoted as B),27,,,,,
CCC[C@H]1C(=O)N[C@@H]([C@@H](C)CC)C(=O)N(C)CC(=O)N(C)[C@H]2C/C=C\CCN(C2=O)[C@@H](Cc2ccc(C(F)(F)F)cc2)C(=O)N(C)CC(=O)N[C@@H](CCc2ccc(C(F)(F)F)c(Cl)c2)C(=O)N2CC3(CC3)C[C@H]2C(=O)NC2(CC(C)(C)C2)C(=O)N(C)[C@@H](CC(C)C)C(=O)N(C)[C@H](C(=O)N(C)C)CC(=O)N1C [PP2987],AA (a compound having 20 or more is denoted as AA),A (a compound having 10 or more and less than 20 is denoted as A),31.7,,,,,
CCO[C@@H]1C[C@H]2C(=O)NC3(CC(C)(C)C3)C(=O)N(C)[C@@H](C(CC)CC)C(=O)N(C)[C@H](C(=O)N(C)C)CC(=O)N(C)[C@@H](C)C(=O)N[C@@H]([C@@H](C)CC)C(=O)N(C)CC(=O)N(C)[C@H]3C/C=C\CCN(C3=O)[C@@H](Cc3ccc(C)cc3)C(=O)N(C)CC(=O)N[C@@H](CCc3cc(F)c(C(F)(F)F)c(F)c3)C(=O)N2C1 [PP2143],,,6.6,A (a compound having 10 or more and less than 20 is denoted as A),A (a compound having 10 or more and less than 20 is denoted as A),,,
CC[C@H](C)[C@@H]1NC(=O)[C@H](CC(C)C)N(C)C(=O)C[C@@H](C(=O)N2CCOCC2)N(C)C(=O)[C@H](C2CCCC2)N(C)C(=O)C2(CCCC2)NC(=O)[C@@H]2CCCN2C(=O)[C@H](CCc2ccc(C(F)(F)F)c(Cl)c2)NC(=O)CN(C)C(=O)[C@H](Cc2ccccc2)N(C)C(=O)CN(C)C(=O)CN(C)C1=O [PP0039] ([NMeL]I[Sar][Sar][NMeF][Sar][hPhe(3-Cl-4-CF3)]P[Ac5c][NMeGly(cPent)][NMeD]-Morpholide; lactam N-11),C (A compound having a KD ratio of 0.1 or more and less than 3 is denoted as C),C (A compound having a KD ratio of 0.1 or more and less than 3 is denoted as C),20.1,,,,,
CCC[C@H]1C(=O)N[C@@H]([C@@H](C)CC)C(=O)N(C)CC(=O)N(C)[C@H]2C/C=C\CCN(C2=O)[C@@H](Cc2ccc(C(F)(F)F)cc2)C(=O)N(C)CC(=O)N[C@@H](CCc2cc(Cl)c(C(F)F)c(Cl)c2)C(=O)N2C[C@H](OCC)C[C@H]2C(=O)NC2(CC(C)(C)C2)C(=O)N(C)[C@@H](C2CCCC2)C(=O)N(C)[C@H](C(=O)N(C)C)CC(=O)N1C [PP2865],A (a compound having 10 or more and less than 20 is denoted as A),A (a compound having 10 or more and less than 20 is denoted as A),,,,37.7,,
CCO[C@@H]1C[C@H]2C(=O)NC3(CC(C)(C)C3)C(=O)N(C)[C@@H](C3CCCC3)C(=O)N(C)[C@H](C(=O)N(C)C)CC(=O)N(C)[C@@H](CC)C(=O)N[C@@H]([C@@H](C)CC)C(=O)N(C)CC(=O)N(C)[C@H]3C/C=C\CCN(C3=O)[C@@H](Cc3ccc(C)cc3)C(=O)N(C)CC(=O)N[C@@H](CCc3ccc(C(F)(F)F)c(OC)c3)C(=O)N2C1 [PP1873],,,8.5,,,,A (a compound having 10 or more and less than 20 is denoted as A),B (a compound having 3 or more and less than 10 is denoted as B)
CCC[C@H]1C(=O)N[C@@H]([C@@H](C)CC)C(=O)N2CCC[C@H]2C(=O)N(C)[C@H]2C/C=C\CCN(C2=O)[C@@H](Cc2ccc(C)cc2)C(=O)N(C)CC(=O)N[C@@H](CCc2ccc(C(F)(F)F)c(OC)c2)C(=O)N2C[C@H](OCC)C[C@H]2C(=O)N(C)C2(CCC2)C(=O)N(C)[C@@H](C2CCCC2)C(=O)N(C)[C@H](C(=O)N(C)C)CC(=O)N1C [PP2332],,,3.8,A (a compound having 10 or more and less than 20 is denoted as A),B (a compound having 3 or more and less than 10 is denoted as B),,,
CCCN(C)C(=O)[C@@H]1CC(=O)N(C)[C@@H](C)C(=O)N[C@@H]([C@@H](C)CC)C(=O)N(C)CC(=O)N(C)[C@H]2C/C=C\CCN(C2=O)[C@@H](Cc2ccc(C(F)(F)F)cc2)C(=O)N(C)CC(=O)N[C@@H](CCc2cc(F)c(C(F)(F)F)c(F)c2)C(=O)N2C[C@H](OCC)C[C@H]2C(=O)NC2(CCC2)C(=O)N(C)[C@@H](C2CCCC2)C(=O)N1C [PP1666],,,8.1,,,,A (a compound having 10 or more and less than 20 is denoted as A),A (a compound having 10 or more and less than 20 is denoted as A)
CCCN(C)C(=O)[C@@H]1CC(=O)N(C)[C@@H](CC(F)F)C(=O)N[C@@H]([C@@H](C)CC)C(=O)N(C)CC(=O)N(C)[C@H]2C/C=C\CCN(C2=O)[C@@H](Cc2ccc(C(F)(F)F)cc2)C(=O)N(C)CC(=O)N[C@@H](CCc2cc(F)c(C(F)(F)F)c(F)c2)C(=O)N2C[C@H](F)C[C@H]2C(=O)NC2(CC(C)(C)C2)C(=O)N(C)[C@@H](C2CCCC2)C(=O)N1C [PP1687],,,2.7,,,,A (a compound having 10 or more and less than 20 is denoted as A),A (a compound having 10 or more and less than 20 is denoted as A)
CC[C@H](C)[C@@H]1NC(=O)[C@H](CC(C)C)N(C)C(=O)C[C@@H](C(=O)N(C)C)N(C)C(=O)[C@H](C2CCCC2)N(C)C(=O)C2(CCCC2)NC(=O)[C@@H]2CCCN2C(=O)[C@H](CCc2cc(F)c(C(F)(F)F)c(F)c2)NC(=O)CN(C)C(=O)[C@H](Cc2ccc(C(F)(F)F)cc2)N2CCCCC[C@@H](C2=O)N(C)C(=O)CN(CC)C1=O [PP0514],,,311,B (a compound having 3 or more and less than 10 is denoted as B),B (a compound having 3 or more and less than 10 is denoted as B),,,
CCCN1C(=O)CN(C)C(=O)CNC(=O)[C@H]([C@@H](C)CC)NC(=O)[C@H](CC(C)C)N(C)C(=O)C[C@@H](C(=O)N(C)C)NC(=O)[C@H](C2CCCC2)N(C)C(=O)C2(CCCC2)NC(=O)[C@@H]2C[C@@H](OCC)CN2C(=O)[C@H](CCc2ccc(C(F)(F)F)c(Cl)c2)NC(=O)CN(C)C(=O)[C@@H]1Cc1ccc(C(F)(F)F)cc1 [PP0365] ([NMeL]IG[Sar][NPrPhe(4-CF3)][Sar][hPhe(3-Cl-4-CF3)][Hyp](Et)[Ac5c][NMeGly(cPent)]D-NMe2; lactam N-11),B (a compound having 3 or more and less than 10 is denoted as B),B (a compound having 3 or more and less than 10 is denoted as B),42.6,,,,,
CCCN1C(=O)CN(C)C(=O)CN(CC)C(=O)[C@H]([C@@H](C)CC)NC(=O)[C@H](CC(C)C)N(C)C(=O)C[C@@H](C(=O)N(C)C)NC(=O)[C@H](C2CCCC2)N(C)C(=O)C2(CCCC2)NC(=O)[C@@H]2C[C@@H](OCC)CN2C(=O)[C@H](CCc2ccc(C(F)(F)F)c(Cl)c2)NC(=O)CN(C)C(=O)[C@@H]1Cc1ccc(C(F)(F)F)cc1 [PP0371] ([NMeL]I[NEtG][Sar][NPrPhe(4-CF3)][Sar][hPhe(3-Cl-4-CF3)][Hyp](Et)[Ac5c][NMeGly(cPent)]D-NMe2; lactam N-11),B (a compound having 3 or more and less than 10 is denoted as B),C (A compound having a KD ratio of 0.1 or more and less than 3 is denoted as C),30.9,,,,,
CCCCN1C(=O)CN(C)C(=O)CN(C)C(=O)[C@H]([C@@H](C)CC)NC(=O)[C@H](CC(C)C)N(C)C(=O)C[C@@H](C(=O)N2CCOCC2)N(C)C(=O)[C@H](C2CCCC2)N(C)C(=O)C2(CCCC2)NC(=O)[C@@H]2CCCN2C(=O)[C@H](CCc2ccc(C(F)(F)F)c(Cl)c2)NC(=O)CN(C)C(=O)[C@@H]1Cc1ccc(C(F)(F)F)cc1 [PP0120] ([NMeL]I[Sar][Sar][X18][Sar][hPhe(3-Cl-4-CF3)]P[Ac5c][NMeGly(cPent)][NMeD]-Morpholide; lactam N-11),B (a compound having 3 or more and less than 10 is denoted as B),C (A compound having a KD ratio of 0.1 or more and less than 3 is denoted as C),5.6,,,,,
CC[C@H](C)[C@@H]1NC(=O)[C@H](CC(C)C)N(C)C(=O)C[C@@H](C(=O)N2CCOCC2)N(C)C(=O)[C@H](C2CCCC2)N(C)C(=O)C2(CCC2)NC(=O)[C@@H]2[C@@H](OCC3CC3)CCN2C(=O)[C@H](CCc2cc(F)c(C(F)(F)F)c(F)c2)NC(=O)CN(C)C(=O)[C@H](Cc2ccc(C(F)(F)F)cc2)N2CCCC[C@@H](C2=O)N(C)C(=O)CN(C)C1=O [PP1072],B (a compound having 3 or more and less than 10 is denoted as B),B (a compound having 3 or more and less than 10 is denoted as B),13,,,,,
